Assay [1] in a line: Competitive inhibition of rabbit liver guanase assessed as guanine hydrolysis rate by Lineweaver-Burk plot method. Set-up: species or system Oryctolagus cuniculus.
Assay [2] addresses T1, Guanine deaminase (Homo sapiens, UniProt Q9Y2T3).
T1 sequence (Q9Y2T3 whole entry): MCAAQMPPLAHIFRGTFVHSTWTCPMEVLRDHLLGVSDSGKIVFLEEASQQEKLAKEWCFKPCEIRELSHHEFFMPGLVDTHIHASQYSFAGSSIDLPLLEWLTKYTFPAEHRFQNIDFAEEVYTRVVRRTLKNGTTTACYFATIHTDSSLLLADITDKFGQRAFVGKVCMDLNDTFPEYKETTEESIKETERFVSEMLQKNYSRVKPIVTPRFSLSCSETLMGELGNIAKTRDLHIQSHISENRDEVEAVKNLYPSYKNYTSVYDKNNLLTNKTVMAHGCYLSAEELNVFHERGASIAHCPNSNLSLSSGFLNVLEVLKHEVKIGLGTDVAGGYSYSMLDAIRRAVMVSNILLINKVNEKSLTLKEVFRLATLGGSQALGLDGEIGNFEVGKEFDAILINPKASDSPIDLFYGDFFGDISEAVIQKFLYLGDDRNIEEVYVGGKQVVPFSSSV
The experiment in a line: Inhibition of guanase.

In general, Ki refers to the dissociation constant of the complex between target and ligand, obtained from inhibition or displacement. As for `O=C1N[C@@H](O)CNc2c1ncn2[C@@H]1O[C@H](CO)[C@@H](O)[C@H]1O`, in assay [1], the inhibitory constant (Ki) turned out to be 119 µM.

Consider `O=C1N[C@H](O)CNc2c1ncn2[C@@H]1O[C@H](CO)[C@@H](O)[C@H]1O`, for which the Ki in assay [1] came to 129 µM.

The term IC50 denotes the concentration at which inhibition is half-maximal. On to `O=C1NC(O)CNc2nc[nH]c21` (racemic) [AZEPINOMYCIN], for which the IC50 in assay [2] came out at 5 µM. For the same compound, the inhibition constant Ki in assay [1] came to 2.5 µM.

For the origin of these results see ChEMBL document CHEMBL2202998, “Investigations into specificity of azepinomycin for inhibition of guanase: discrimination between the natural heterocyclic inhibitor and its synthetic nucleoside analogues” (Bioorg Med Chem Lett, 2012).
